From patent US9359279B2, “Treatment of cancer, inflammatory disease, and autoimmune disease” (AndroScience Corporation, priority 2010, dated 2016)
Where a name gives a salt, the structure may show the parent alone.

Key:
[1] = system: human Lennert's T cell lymphoma KT-3 cells; assay: Inhibition of IL-6-induced proliferation of KT-3 cells (CellTiter Glo viability); format: cell-based; details: read-out: IC50 (the concentration at which a compound suppresses cell growth by 50%), hIL-6 2.5 ng/ml, 48 hours
Protocol: Inhibitory Effects on Proliferation of Human Lernert's T Cell Lymphoma KT-3
Inhibitory effects of compounds of this invention on the growth of human Lennert's T cell lymphoma KT-3 cells, an IL-6-dependent cell line, were determined as described below. […] To experimental wells, test compounds at various concentrations (in triplicates) were added immediately after the cells were plated. To the control wells, an equal volume of vehicle, DMSO (0.1% v/v), was added. After incubating the cells with the compounds or in vehicle for 48 hours, cell viability was assessed using a CellTiter Glo Luminescent Cell Viability Assay Kit (Promega, Madison, Wis.). The resultant luminescence was quantified using Microplate Luminometer LB96V (EG&G BERTH HOLD) according to the manufacturer's protocol. The cell surviving rate was calculated by dividing the luminescence value of compound-treated cells with that of vehicle-treated cells.

STAT3 = assay: Western blot analysis of STAT3 protein in KT-3 cells; format: cell-based, human; details: KT-3 cells, 1, 5, or 20 μM, 0.5-6 hours
Protocol: (§1) Western Blot Analysis of MRG, STAT1, STAT3, and STAT5 Proteins in KT-3 Cells
(§2) Western Blot analysis was performed as described in Kawashima et al., J. Immunol. 2001, 167:3652-3660, with minor modifications. Briefly, KT-3 cells were treated with 1, 5, or 20 μM of compound 6 or vehicle alone in the above described IL-6-containing medium. At various time points after incubation (i.e., 0.5, 1, 3, and 6 hours after the treatment), cells were harvested and lysed using a lysis buffer (1.0% Triton X-100, 50 mM Tris-HCl (pH 7.5), 0.1 mM EDTA, 150 mM NaCl, 200 μM Na3VO4, 50 mM NaF, 1 mM dithiothreitol, 0.4 mM phenylmethylsulfonyl fluoride, 3 μg/ml of aprotinin, 2 μg/ml of pepstatin A, 1 μg/ml of leupeptin) at 2×10^7 cells/ml on ice for 30 min. Cell lysates were harvested by centrifugation at 12,000×g for 15 min. The samples (1×10^5 cell equivalent/lane) were subjected to sodium dodecyl sulfate-polyacrylamide gel electrophoresis and subsequently transferred onto Immobilon filters (Millipore). After blocked with 5% BSA, the filter was probed with anti-pSTAT3, STAT3, STAT5, STAT1, MRG or Actin Abs. The rabbit polyclonal anti-STAT3, anti-STAT5, anti-STAT1, and anti-Actin antibodies (Abs), and mouse monoclonal anti-pSTAT3 Ab (B-7) were obtained from Santa Cruz Biotechnology. Affinity purified anti-MRG Ab was prepared as described previously in Hirose et al., J. Biol. Chem. 276:5821-5828. […]

STAT5 = assay: Western blot analysis of STAT5 protein in KT-3 cells; format: cell-based, human; details: KT-3 cells, 1, 5, or 20 μM, 0.5-6 hours
Protocol: as §1, §2

pSTAT3 = assay: Western blot analysis of STAT3 phosphorylation (pSTAT3) in KT-3 cells; format: cell-based, human; details: KT-3 cells, 1, 5, or 20 μM, 0.5-6 hours
Protocol: as §1, §2

STAT1 = assay: Western blot analysis of STAT1 protein in KT-3 cells; format: cell-based, human; details: KT-3 cells, 1, 5, or 20 μM, 0.5-6 hours
Protocol: as §1, §2

HCT-116 cells = assay: Human colon cancer (HCT-116) mouse xenograft model; format: in vivo; details: athymic nude mice, HCT-116 xenograft, 40 mg/kg i.p. daily, days 0-4 and 7-10
Protocol: Inhibitory Effect on Human Colon Cancer (HCT-116) in a Mouse Xenograft Model
The in vivo experiments were carried out under an Institutional Animal Care and Use Committee-approved protocol and followed Institutional guidelines for proper and humane use of animals in research. Six-week-old female athymic nude mice were purchased from the Harlan Laboratory. Each of eight mice was injected subcutaneously with 1×10^6 HCT-116 cells mixed with Matrigel (BD Bioscience) at the left flank. After injection, tumors were allowed to grow for 5 days into a palpable size (volume ˜100 mm^3) before treatment. Mice were randomized into two groups (n=4 per group). The control group was injected with a vehicle solution only (i.e., 10% DMSO and 90% corn oil), while the experimental group received a daily injection (i.p.) of compound 6 (at a dose of 40 mg/kg body weight, dissolved in the vehicle solution) from days 0 (the initiation day of injection) to 4 and from days 7 to 10. The sizes of tumors were measured twice a week using a Vernier caliper and calculated using the following formula: length×width×height×0.5236, as described in Rockwell et al., J Natl. Cancer Inst. 1972; 49:735-747.

[2] = Inhibition of growth of various human tumor cell lines (MTT); format: cell-based; details: Homo sapiens, range over all tumor cell lines tested, 72 h, read-out: IC50 values, growth of all tumor cells tested
Protocol: (§3) Inhibition of Growth of Various Human Tumor Cell Lines
(§4) The inhibitory effects of Compound 6 were determined as described below on the growth of colon cancer cells (HCT116, HT29, SW480, and SW620), colon adenocarcinoma cells (Colo205), prostate adenocarcinoma cells (PC-3 and Dul145), prostate carcinoma cells (CWR22RV and LNCap), non-small cell lung carcinoma cells (NCI-H1299), lung adnocarcinoma cells (A549), large cell lung carcinoma cells (NCI-H460), breast metastatic carcinoma cells (MDA-MB-453), breast ductal carcinoma cells (T-47D), breast adnocarcinoma cells (MCF7), hepatocellular carcinoma cells (Huh-7 and HepG2), pancreatic carcinoma cells (PANC-1), cervix adnocarcinoma cells (Hela), IL-6-dependent Lennert's T-cell lymphoma cells (KT-3), IL-6-dependent multiple myeloma cells (INA-6), multiple myeloma cells (KMM-1 and U266), myeloid leukemia cells (HL-60), and T-cell leukemia cells (Jurkat). […] The viability of the tumor cells was then assessed using the tetrazolium-based calorimetric assay (MTT) as described in Su et al., J Mol Cell Cardiol. […] The resultant formazan crystals were solubilized with MTT lysis buffer (50% DMF, 24 mM HCl, 2% Acetic Acid, 5% SDS) and the absorbance at 595 nm was measured using a Benchmark microplate reader (BIO-RAD, Hercules, Calif.). […]

[3] = system: various human tumor cell lines (HCT116, HT29, SW480, SW620, Colo205, PC-3, Dul145, CWR22RV, LNCap, NCI-H1299, A549, NCI-H460, MDA-MB-453, T-47D, MCF7, Huh-7 …); assay: as above; format: cell-based; details: 0 to 5 μM, 72 h
Protocol: as §3, §4

MRG (MgcRacGAP) = assay: Western blot analysis of MRG protein in KT-3 cells; format: cell-based, human; details: KT-3 cells, 1, 5, or 20 μM, 0.5-6 hours
Protocol: as §1, §2

| Structure (SMILES) | IC50 [1] [nM] | melting point [°C] | further results |
| --- | --- | --- | --- |
| O=C1/C(=C/c2cccc(O)c2)CN(C(=O)C2CC2)C/C1=C\c1cccc(O)c1 [Compound 16] | ≤ 50 | – | – |
| CCS(=O)(=O)Oc1cccc(/C=C/C(=O)/C=C/c2cccc(OS(=O)(=O)CC)c2)c1 [Compound 6] | ≤ 50 | – | STAT3 protein level (STAT3): down-regulated; STAT5 protein level (STAT5): down-regulated; phosphorylation of STAT3 protein (pSTAT3): inhibited phosphorylation; expression of STAT1 (STAT1): no effect; human colon cancer growth (tumor size) (HCT-116 cells): inhibited human colon cancer growth; IC50 [2]: 20 to 5500 nM; inhibitory effects on the growth of all tumor cells tested [3]: dose-dependent inhibitory effects; MRG protein level (MRG (MgcRacGAP)): down-regulated |
| CCS(=O)(=O)Oc1cccc(/C=C/C(=O)/C=C/c2cc(OS(=O)(=O)CC)cc(OS(=O)(=O)CC)c2)c1 [Compound 27] | ≤ 50 | – | – |
| CCS(=O)(=O)Oc1cccc(/C=C/C(=O)/C=C/c2cccc(OS(=O)(=O)CC)c2OS(=O)(=O)CC)c1 [Compound 26] | ≤ 50 | – | – |
| CCP(=O)(CC)Oc1cccc(/C=C/C(=O)/C=C/c2cccc(OP(=O)(CC)CC)c2)c1 [Compound 18] | ≤ 50 | – | – |
| CCN(CC)CCOc1cccc(/C=C/C(=O)/C=C/c2cccc(OCCN(CC)CC)c2O)c1 [Compound 36] | ≤ 50 | – | – |
| CCN(CC)CCOc1cccc(/C=C/C(=O)/C=C/c2cccc(O)c2O)c1 [Compound 35] | ≤ 50 | – | – |
| CCN(CC)CCOc1cccc(/C=C/C(=O)/C=C/c2cccc(O)c2)c1 [Compound 19] | ≤ 50 | – | – |

The next lines start with results.

| IC50 [1] [nM] | melting point [°C] | Structure (SMILES) | further results |
| --- | --- | --- | --- |
| – | 102 to 103 | CCS(=O)(=O)Oc1cccc(/C=C/C(=O)/C=C/c2ccc(OS(=O)(=O)CC)c(OS(=O)(=O)CC)c2)c1 [Compound 43] | – |
| ≤ 50 | – | CCN(CC)CCOc1cccc(/C=C2\CN(C(=O)C3CC3)C/C(=C\c3cccc(OCCN(CC)CC)c3)C2=O)c1 [Compound 46] | – |
| – | 104 to 106 | CCN(CC)CCOc1cccc(/C=C/C(=O)/C=C/c2cccc(O)c2)c1 (as salt: succinic acid salt) [Compound 47] | – |
| – | 138 to 139 | O=C(/C=C/c1cccc(O)c1)/C=C/c1cccc(C(F)(F)F)c1 [Compound 41] | – |
| ≤ 50 | – | O=C(/C=C/c1cccc(O)c1)/C=C/c1cccc(OCCCN2CCCCC2)c1 [Compound 56] | – |
| – | 159 to 160 | O=C(/C=C/c1cccc(O)c1)/C=C/c1ccccc1F [Compound 42] | – |
| ≤ 50 | – | O=C(/C=C/c1cccc(O)c1)/C=C/c1cccc(OCCN2CCCCC2)c1 [Compound 57] | – |
| – | 152 to 153 | COc1ccc(/C=C/C(=O)/C=C/c2cccc(O)c2)cc1 [Compound 39] | – |
| ≤ 50 | – | CCN(CC)CCOc1cccc(/C=C2\CN(C(=O)C3CC3)C/C(=C\c3cccc(O)c3)C2=O)c1 [Compound 45] | – |
| – | 159 to 160 | COc1ccc(/C=C/C(=O)/C=C/c2cccc(O)c2)cc1OC [Compound 38] | – |
